Measured values from PubChem BioAssay (NCI).
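Exposure lasted 48 hours, with cells grown in 96-well plates and compounds tested at five concentrations. The concentration for 50% growth inhibition is given as GI50. TGI: total growth inhibition.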

Tested on: HOP-18 NSCLC
Assay: inhibition of tumour cell growth, NCI panel, 48 h

SMILES	TGI
N#CCCC[Si]12OCCN(CCO1)CCO2	> 100 µM
O=C(/C=C/c1c(O)ccc2ccccc12)c1ccc([N+](=O)[O-])cc1	47.6 µM

Tested on: XF 498 CNS
Assay: inhibition of tumour cell growth, NCI panel, 48 h

SMILES	TGI
O=C(Nc1nc(=S)[nH][nH]1)C(=O)C(C(=O)c1ccc2ccccc2c1)C1OC(=O)c2ccccc21 (stereo unspecified)	41.9 µM
CCOC(=O)C1=C(C)N(NC(=O)Nc2ccccc2)C2(N)N(NC(=O)Nc3ccccc3)C(C)=C(C(=O)OCC)C12C(=O)OCC (stereo unspecified)	37.9 µM
O=C(O)CSc1n[nH]c(-c2ccccc2O)n1	> 100 µM
CCOc1ccc(NC2=CC(=O)C(=O)c3ccccc32)cc1	5.31 µM
CN(C)C=Nc1nc(=O)n(C2CCC(CO)O2)cc1F (stereo unspecified)	> 100 µM
O=C1c2ccccc2C(=O)c2c(/C=C\N3CCCCC3)ccnc21	27.2 µM
O=c1[nH]c(-c2ccccc2)nc2cc(Cl)ccc12	> 100 µM
Cc1ccc(S(=O)(=O)N2CCC2c2ccccc2)cc1 (stereo unspecified)	> 100 µM
C/C(CN1C(=O)c2ccccc2C1=O)=N\NS(=O)(=O)c1ccc(Cl)cc1	> 100 µM
CCOC(=O)C1Sc2ccccc2N=C1C (stereo unspecified)	> 100 µM
O=C(NC1C=CCC2C(=O)N(c3ccccc3)C(=O)C12)OCc1ccccc1 (stereo unspecified)	> 100 µM
CCC(C)SC1SCC2C(=O)N(C)C3(CC3C)C(=O)OCC(NC(=O)c3nc4ccccc4cc3O)C(=O)NC(C)C(=O)N(C)C1C(=O)N(C)C1(CC1C)C(=O)OCC(NC(=O)c1nc3ccccc3cc1O)C(=O)NC(C)C(=O)N2C (stereo unspecified)	0.000434 µM
CC1(C)CC(c2c[nH]c3ccccc23)=CC2=Nc3ccccc3C21O (stereo unspecified)	> 100 µM
CN1C(=O)C(=O)N2c3ccc(Cl)cc3C3(c4ccccc4)N=CC12O3 (stereo unspecified)	12.3 µM
O=C(/C=C/c1c(O)ccc2ccccc12)c1ccc([N+](=O)[O-])cc1	> 100 µM

Tested on: KM20L2 colon
Assay: inhibition of tumour cell growth, NCI panel, 48 h

SMILES	TGI	GI50
C[C@@]1(O)CC[C@]2(C)C3CCCC3[C@H]12 (stereo partly specified)	> 100 µM	
CC(=O)[O-].CC(=O)[O-].O=C(N/N=C/c1cc(Cl)cc(Cl)c1O)c1ccncc1.[Cu+2]	> 100 µM	
O=C(Nc1nc(=S)[nH][nH]1)C(=O)C(C(=O)c1ccc2ccccc2c1)C1OC(=O)c2ccccc21 (stereo unspecified)	> 100 µM	
CCOC(=O)C1=C(C)N(NC(=O)Nc2ccccc2)C2(N)N(NC(=O)Nc3ccccc3)C(C)=C(C(=O)OCC)C12C(=O)OCC (stereo unspecified)	> 100 µM	
O=C(O)CSc1n[nH]c(-c2ccccc2O)n1	> 100 µM	
CCOc1ccc(NC2=CC(=O)C(=O)c3ccccc32)cc1	36.7 µM	
Cc1nc(-c2nc(C)c(C(=O)NNC(=O)C[n+]3ccccc3)s2)sc1C(=O)NNC(=O)C[n+]1ccccc1	> 100 µM	
CN(C)C=Nc1nc(=O)n(C2CCC(CO)O2)cc1F (stereo unspecified)	> 100 µM	
O=C1c2ccccc2C(=O)c2c(/C=C\N3CCCCC3)ccnc21	32.6 µM	
O=c1[nH]c(-c2ccccc2)nc2cc(Cl)ccc12	> 100 µM	
Cc1ccc(S(=O)(=O)N2CCC2c2ccccc2)cc1 (stereo unspecified)	> 100 µM	
CCCOc1nc(N)c2cnn(C3CCCCO3)c2n1 (stereo unspecified)	> 100 µM	
C/C(CN1C(=O)c2ccccc2C1=O)=N\NS(=O)(=O)c1ccc(Cl)cc1	> 100 µM	
COc1ccc(/C=C/COC(C)=O)cc1OC	> 100 µM	
[O-][Cl+3]([O-])([O-])[O-].[O]=[Ru]=[O].c1ccc(-c2ccccn2)nc1.c1ccc(-c2ccccn2)nc1	> 100 µM	> 100 µM
COc1cc2c(cc1OC)C(Cl)C(c1ccc(F)cc1)=C2Cl (stereo unspecified)	28 µM	
O=C1C(C(Nc2ccccc2)c2ccccc2)=C([O-])c2ccccc21.O=C1C(C(Nc2ccccc2)c2ccccc2)=C([O-])c2ccccc21.[Cu+2] (stereo unspecified)	> 100 µM	52.5 µM
CN(C)CC1CCC/C1=N/OC(=O)c1ccccc1 (stereo unspecified)	> 100 µM	
CCOC(=O)C1Sc2ccccc2N=C1C (stereo unspecified)	> 100 µM	
O=C(NC1C=CCC2C(=O)N(c3ccccc3)C(=O)C12)OCc1ccccc1 (stereo unspecified)	> 100 µM	
CCC(C)SC1SCC2C(=O)N(C)C3(CC3C)C(=O)OCC(NC(=O)c3nc4ccccc4cc3O)C(=O)NC(C)C(=O)N(C)C1C(=O)N(C)C1(CC1C)C(=O)OCC(NC(=O)c1nc3ccccc3cc1O)C(=O)NC(C)C(=O)N2C (stereo unspecified)	0.000446 µM	
Cc1[cH-]c(=O)n(-c2ccccc2)n1.[Au+].[Au].c1ccc([PH+](c2ccccc2)c2ccccc2)cc1.c1ccc([PH+](c2ccccc2)c2ccccc2)cc1	> 100 µM	66.7 µM
CC1(C)CC(c2c[nH]c3ccccc23)=CC2=Nc3ccccc3C21O (stereo unspecified)	> 100 µM	
CN1C(=O)C(=O)N2c3ccc(Cl)cc3C3(c4ccccc4)N=CC12O3 (stereo unspecified)	24.1 µM	
O=C(/C=C/c1c(O)ccc2ccccc12)c1ccc([N+](=O)[O-])cc1	> 100 µM	

Tested on: RXF-631 renal
Assay: inhibition of tumour cell growth, NCI panel, 48 h

SMILES	TGI
C[C@@]1(O)CC[C@]2(C)C3CCCC3[C@H]12 (stereo partly specified)	> 100 µM
